The record followed here is publication PMC6273432, “Novel Selective Butyrylcholinesterase Inhibitors Incorporating Antioxidant Functionalities as Potential Bimodal Therapeutics for Alzheimer’s Disease” (Molecules, 2016).

For data set [1], the target named is T1, BuChE purified from human plasma (Homo sapiens, UniProt P06276).
T1 construct: BuChE purified from human plasma; from tissue; host or cells: human plasma
Kind of data set: Ellman assay, BuChE inhibition. Particulars: for Selectivity: IC50 AChE/IC50 BuChE, 100 µM used for AChE where % inhibition at 100 µM was <50%; for IC50: n = 3. It is filed as biochemical. On the procedure:
(§1) Inhibitory activities of the isosorbide-2-carbamates bearing a lipoate ester (7a–d), a ferulate ester (8a–d) ester or 5-unsubstituted compounds (6a–d) was measured using the standard Ellman spectrophotometric method using AChE from electric eel or BuChE purified from human plasma with acetylthiocholine or butyrylthiocholine as appropriate (Table 1). […] These values are in the potency range of clinically used cholinesterase inhibitors. […] In most cases, it was not possible to achieve a maximal inhibition of AChE because the solubility threshold was lower than the concentration required for maximal inhibition. In previous studies, we noticed that phenyl carbamates of isosorbide are relatively weak inhibitors of BuChE compared with the benzyl and alkyl carbamates, but that AChE is relatively tolerant of isosorbide phenyl carbamates. We published a paper showing that isosorbide-2,5-diaryl esters are moderately potent substrate-inhibitors of AChE [25]. […] The effect of (appropriate) 5-ester substitution in the series of isosorbide compounds already published is to increase potency by promoting affinity in the pre-carbamylation state, reducing the pseudo Michaelis constant for the carbamate substrate (referred to as Kc in carbamylation literature). When the intrinsic affinity of the substrate carbamate is higher, there is a relatively greater proportion of the unimolecular E. carbamate complex. In the present case, the anti-oxidant ester functionality directly contributes to potency by increasing substrate affinity. […] Indeed, ester hydrolysis at the isosorbide C-5, which is slow, would produce the ferulic acid or lipoic acid byproduct.
(§2) Cholinesterase activity was measured using the Ellman spectrophotometric method. HuBuChE activity was measured in replicate samples using a 96-well plate reader. The total volume of test solution in each well was 250 μL. This consisted of 25 μL of plasma solution, 150 μL of phosphate buffer pH 8.0, 25 μL of DTNB solution (0.5 mM), and 25 μL of acetonitrile:distilled water (1:1). The 96-well plate was incubated for 30 min before 25 μL of butyrylthiocholine iodide (BTCI) solution (0.5 mM) was added, and the reaction was measured at 405 nm over 5 min using an Anthos bt2 plate reader. For the determination of AChE activity, 25 μL of electric eel AChE solution and 25 μL of acetylthiocholine iodide (ATCI) solution were used instead of the plasma solution and BTCI solution. For determination of enzyme inhibition, 25 μL of an inhibitor solution was added to the test solution instead of the acetonitrile:water (1:1) solution. Inhibitors were added 30 min before determination of remaining enzyme activity. IC50 values were calculated using GraphPad Prism 4.02 software (GraphPad Software Inc., La Jolla, CA, USA).
Background: DTNB colorimetry detects thiols as they appear.

The target in the next data set is T2, AChE from electric eel (Electrophorus electricus, UniProt O42275).
T2 construct: AChE from electric eel; from tissue
Kind of data set: Ellman assay, AChE inhibition. In kind it is biochemical. To be noted: for IC50: inhibitor added 30 min before; for inhibition at 100 µM: read-out: AChE %I at 100 μM. How it is done:
as §1, §2

Data set [2] concerns HT-22 murine hippocampal cell line. Kind of data set: cells. To be noted: glutamate 5 mM. In kind it is cell-based. How it is done:
(§3) The neuroprotective properties of the compounds were assessed using the HT-22 murine hippocampal cell line. This is an immortalized cell line which has become widely used in recent years to study oxidative stress induced neuronal cell death. The cell line lacks ionotropic glutamate receptors but is sensitive to glutamate cytotoxicity via non-receptor mediated pathway(s) that are to a significant extent propagated by reactive oxygen species. The cell line appeared to be a good cellular model for measuring an anti-oxidant mediated neuroprotective in vitro effect of the compounds [26, 27, 28].
(§4) Test compounds in DMSO solution (0.1%) were added to HT-22 cell culture for (24 h), using four repeats in three independent experiments. […] Lipoic acid and ferulic acid were also non-toxic in the same concentration range. Next, the neuronal cell culture was treated with glutamate (5 mM) which caused about 90% cell death as reflected in the MTT assay. Quercetin served as positive control and caused rescue of cell death to around 80% cell viability at 25 µM. Cells were co-treated with test compounds 7a–d and 8a–d at 1, 5, 10 and 25 µM in four repeats and three independent experiments. Lipoic and ferulic acid were tested in parallel experiments in the same concentration range. Lipoic acid was active in the range 10–25 µM but ferulic acid was not active (data not shown). […] The reasons for this unexpected variation in efficacy is not clear but may be due to (intra)cellular access.
This test was performed as reported before. Briefly, HT-22 cells were seeded in 96-well plates at a density of 5 × 10^3 per well and cultured for 24 h. Subsequently, cells were incubated for another 24 h either with medium or test compounds with potential cytoprotective activity either in the absence (to test for toxic effects) or the presence (to test for the protective potential against glutamate induced oxidative stress) of 5 mM glutamate. MTT solution (4 mg/mL in PBS) was diluted 1:10 with medium and the mixture was added to the wells after removal of the previous medium. The plates were then incubated for another 3 h. Then, the supernatant was removed and 100 µL of lysis buffer (10% SDS, pH 4.1) were added to the wells. Absorbance at 560 nm was determined on the next day using a multiwell plate photometer (Spectra Fluor Plus, Tecan, Crailsheim, Germany). The results of these cell viability assays were expressed as percentages relative to untreated control cells. All compounds were dissolved in DMSO and diluted with fresh medium, with the DMSO concentration always below 0.1% (v/v).
Data of all MTT tests were expressed as means ± SD of at least three independent experiments (in quadruplicates). Data were subjected to one-way ANOVA followed by Dunnett’s multiple comparison post-test using GraphPad Prism 5 Software. (Levels of significance ** p < 0.01; *** p < 0.001).

Data set [3] has the same test system. In kind it is cell-based. To be noted: 24 h, no glutamate; for toxicity / reduction in cell viability, compound alone: 1–25 µM. How it is done: as §3, §4
This test was performed as reported before. Briefly, HT-22 cells were seeded in 96-well plates at a density of 5 × 10^3 per well and cultured for 24 h. […] Absorbance at 560 nm was determined on the next day using a multiwell plate photometer (Spectra Fluor Plus, Tecan, Crailsheim, Germany). The results of these cell viability assays were expressed as percentages relative to untreated control cells. […]

[4] abbreviates: inhibitor added 30 min before, read-out: BChE IC50.
Where [5] appears, read: read-out: BChE pIC50 ± SEM (converted).

Where two headings read alike, the source gives them in different places.

T1 sequence (P06276 29-602): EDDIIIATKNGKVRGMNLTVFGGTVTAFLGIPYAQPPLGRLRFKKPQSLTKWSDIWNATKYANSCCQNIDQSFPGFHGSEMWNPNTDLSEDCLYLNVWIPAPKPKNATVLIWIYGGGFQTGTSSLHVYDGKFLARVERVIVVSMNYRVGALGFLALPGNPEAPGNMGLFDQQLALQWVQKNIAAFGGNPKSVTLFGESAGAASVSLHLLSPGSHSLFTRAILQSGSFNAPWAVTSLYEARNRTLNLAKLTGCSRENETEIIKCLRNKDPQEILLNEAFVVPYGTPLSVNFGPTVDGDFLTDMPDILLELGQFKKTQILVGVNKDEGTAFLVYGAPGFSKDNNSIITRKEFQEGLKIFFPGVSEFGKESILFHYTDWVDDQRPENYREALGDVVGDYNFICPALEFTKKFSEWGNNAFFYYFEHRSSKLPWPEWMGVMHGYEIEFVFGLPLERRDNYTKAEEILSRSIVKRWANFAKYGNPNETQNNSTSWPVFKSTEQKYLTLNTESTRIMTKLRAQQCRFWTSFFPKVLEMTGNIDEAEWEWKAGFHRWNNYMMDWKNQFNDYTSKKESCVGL
T2 sequence (O42275 24-633): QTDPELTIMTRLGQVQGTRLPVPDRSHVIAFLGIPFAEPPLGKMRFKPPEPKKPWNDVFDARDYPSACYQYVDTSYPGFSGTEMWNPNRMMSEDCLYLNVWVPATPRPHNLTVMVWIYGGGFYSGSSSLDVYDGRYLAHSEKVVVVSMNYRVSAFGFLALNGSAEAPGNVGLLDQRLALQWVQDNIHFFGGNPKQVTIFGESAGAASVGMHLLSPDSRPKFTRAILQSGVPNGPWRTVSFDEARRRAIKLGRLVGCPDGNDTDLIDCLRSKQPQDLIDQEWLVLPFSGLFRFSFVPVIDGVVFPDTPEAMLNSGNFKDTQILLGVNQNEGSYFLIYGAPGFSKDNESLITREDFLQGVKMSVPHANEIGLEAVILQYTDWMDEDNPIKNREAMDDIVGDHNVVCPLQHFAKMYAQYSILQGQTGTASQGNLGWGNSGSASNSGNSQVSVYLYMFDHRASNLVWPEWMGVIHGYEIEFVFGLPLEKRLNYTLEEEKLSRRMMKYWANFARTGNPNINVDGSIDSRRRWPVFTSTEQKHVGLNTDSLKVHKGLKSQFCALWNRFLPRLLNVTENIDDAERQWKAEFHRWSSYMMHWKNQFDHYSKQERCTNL

Molecule `O=C(NCc1ccccc1)O[C@H]1CO[C@H]2[C@@H]1OC[C@H]2O` [Compound 6a, Isosorbide-2-benzylcarbamate] displayed a Selectivity in data set [1] of 1.45. The IC50 in data set [1] (setting [4]) was determined as 25.8 µM; at AChE from electric eel (n = 3) it was 37.5 ± 7.4 µM.

Regarding `O=C(Nc1ccccc1)O[C@H]1CO[C@H]2[C@@H]1OC[C@H]2O` [Compound 6b, Isosorbide-2-phenylcarbamate], the IC50 in data set [1] (setting [4]) was above 100 µM. In addition, the inhibition at 100 µM at AChE from electric eel (100 μM, n = 3) was determined as 25.3%.

On to `CCCCNC(=O)O[C@H]1CO[C@H]2[C@@H]1OC[C@H]2O` [Compound 6c, Isosorbide-2-butylcarbamate], for which the IC50 in data set [1] (setting [4]) is 28 µM; in data set [1] (setting [5]), 28.2 µM. On AChE from electric eel, the inhibition at 100 µM was 30%.

As to `CCNC(=O)O[C@H]1CO[C@H]2[C@@H]1OC[C@H]2O` [Compound 6d, Isosorbide-2-ethylcarbamate], the IC50 is 46.9 µM in data set [1] (setting [4]) and 46.8 µM in data set [1] (setting [5]). For the same molecule, the inhibition at 100 µM on AChE from electric eel (100 μM, n = 3) was 22%.

On to `O=C(CCCCC1CCSS1)O[C@@H]1CO[C@H]2[C@@H]1OC[C@@H]2OC(=O)Nc1ccccc1` (stereo partly shown) [Compound 7b, Isosorbide-2-phenylcarbamate-5-lipoic acid ester], for which the Selectivity in data set [1] was above 7.5. Besides, the IC50 in data set [1] (setting [4]) is 13.3 µM; in data set [1] (setting [5]), 13.2 µM. Moreover, the “neuroprotective effect” value in data set [2] (1–25 µM) is listed as “neuroprotective effect could not be observed”. The inhibition at 100 µM at AChE from electric eel (100 μM, n = 3) was 18.8%.

For the molecule `CCCCNC(=O)O[C@H]1CO[C@H]2[C@@H]1OC[C@H]2OC(=O)CCCCC1CCSS1` (stereo partly shown) [Compound 7c, Isosorbide-2-butylcarbamate-5-lipoic acid ester], the results for the IC50 in data set [1] (setting [4]) and in data set [1] (setting [5]) were 0.17 µM and 0.209 µM, respectively. In data set [2] (1–25 µM), the “neuroprotective effect” value is “showed some effects”. For the same molecule, the inhibition at 100 µM at AChE from electric eel (100 μM, n = 3) worked out at 68.7%.

As to `COc1cc(/C=C/C(=O)O[C@@H]2CO[C@H]3[C@@H]2OC[C@@H]3OC(=O)Nc2ccccc2)ccc1O` [Compound 8b, Isosorbide-2-phenylcarbanate-5-ferulate], the Selectivity in data set [1] was 0.92. In addition, the IC50 in data set [1] (setting [4]) is 29.2 µM; in data set [1] (setting [5]) it was 26.3 µM; against AChE from electric eel (n = 3), 27.1 ± 11.3 µM.

As to `CCCCNC(=O)O[C@H]1CO[C@H]2[C@@H]1OC[C@H]2OC(=O)/C=C/c1ccc(O)c(OC)c1` [Compound 8c, Isosorbide-2-butylcarbanate-5-ferulate], the IC50 was 0.43 µM in data set [1] (setting [4]) and 0.389 µM in data set [1] (setting [5]).

As to `CCNC(=O)O[C@H]1CO[C@H]2[C@@H]1OC[C@H]2OC(=O)/C=C/c1ccc(O)c(OC)c1` [Compound 8d, Isosorbide-2-ethylcarbanate-5-ferulate], the IC50 is 95 µM in data set [1] (setting [4]) and 95.5 µM in data set [1] (setting [5]). The “reduction in cell viability, compound alone” value in data set [3] (25 µM) was “significant”.

Regarding `COc1cc(/C=C/C(=O)O)ccc1O` [Ferulic acid, ferulic acid, reference compound], the “toxicity / reduction in cell viability, compound alone” value in data set [3] is on record as “non-toxic”. Moreover, the “neuroprotective effect” value in data set [2] (1–25 µM) is recorded as “not active”.

For `O=C(O)CCCCC1CCSS1` (stereo not shown) [Lipoic acid, lipoic acid, reference compound], the “toxicity / reduction in cell viability, compound alone” value in data set [3] is “non-toxic”. Moreover, the “neuroprotective effect” value in data set [2] (compound 5 µM) is recorded as “not effective”.

In the case of `O=c1c(O)c(-c2ccc(O)c(O)c2)oc2cc(O)cc(O)c12` [Quercetin, quercetin, reference compound], in data set [2] (Mus musculus, HT-22, compound 25 µM, read-out: cell viability after rescue from glutamate), the viability at 25 µM was around 80%.

One may read the viability as a read-out of living cells in per cent, often relative to untreated cells.
